Reference: US11884675B2, “Heterocyclic compounds as triggering receptor expressed on myeloid cells 2 agonists and methods of use” (AMGEN INC., priority 2020, dated 2024)

Target: hTREM2 (Homo sapiens, UniProt Q9NZC2)
Assay: TREM2 activity by cellular Syk phosphorylation (AlphaScreen/AlphaLISA) in TREM2/DAP12-HEK cells, used for Examples 1-305
Assay type: cell-based
Parameters: expressed in transfected cells
Settings: HEK293 Cells
Method in brief: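 Phospho-Syk (Tyr525/526) over total Syk quantified by AlphaScreen in lysates of cloned TREM2/DAP12-overexpressing HEK293 cells after 45 min compound treatment at room temperature, 1% final DMSO. Values expressed relative to 100 nM anti-TREM2 antibody (positive) and isotype IgG (negative) controls; curves fitted with 4-parameter logistic model.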

hTREM2, sequence (Q9NZC2 19-230): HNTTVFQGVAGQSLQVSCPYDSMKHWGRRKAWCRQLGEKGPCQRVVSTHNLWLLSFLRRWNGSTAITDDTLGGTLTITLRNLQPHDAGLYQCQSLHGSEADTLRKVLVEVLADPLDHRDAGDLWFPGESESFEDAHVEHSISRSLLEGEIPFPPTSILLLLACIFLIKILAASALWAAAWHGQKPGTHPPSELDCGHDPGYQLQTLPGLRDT
hTREM2, sequence (O43914 22-113 partner): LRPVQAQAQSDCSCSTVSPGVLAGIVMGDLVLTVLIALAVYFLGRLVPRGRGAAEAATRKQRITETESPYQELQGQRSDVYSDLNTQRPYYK

EC50 [nM] | hTREM2 Emax | SMILES
≤ 50 | +++ (Emax>150 and ≤250) | Cc1cc([C@H]2CN(c3cc4nc(C)cnc4c(-c4ccc(Cl)cc4F)n3)CCO2)ccn1 [Example 77, 5-(4-chloro-2-fluorophenyl)-2-methyl-7-((2S)-2-(2-methyl-4-pyridinyl)-4-morpholinyl)pyrido[3,4-b]pyrazine]
50 to 500 | +++ (Emax>150 and ≤250) | COc1cc([C@H]2CN(c3cc4nc(C)cnc4c(-c4ccc(Cl)cc4F)n3)CCO2)ccn1 [Example 78, 5-(4-chloro-2-fluorophenyl)-7-((2S)-2-(2-methoxy-4-pyridinyl)-4-morpholinyl)-2-methylpyrido[3,4-b]pyrazine]
≤ 50 | ++++ (Emax>250) | Cc1nc2cc(N3CCO[C@@H](c4cnn(C)c4)C3)nc(-c3ccc(Cl)cc3F)c2nc1C [Example 79, 5-(4-chloro-2-fluorophenyl)-2,3-dimethyl-7-((2S)-2-(1-methyl-1H-pyrazol-4-yl)-4-morpholinyl)pyrido[3,4-b]pyrazine]
50 to 500 | ++ (Emax>100 and ≤150) | Cc1nc2cc(N3CCO[C@@H](c4cnn(C)c4)C3)nc([C@H]3C[C@H](C(F)(F)F)C3)c2nc1C [Example 80, 2,3-dimethyl-7-((2S)-2-(1-methyl-1H-pyrazol-4-yl)-4-morpholinyl)-5-(trans-3-(trifluoromethyl)cyclobutyl)pyrido[3,4-b]pyrazine]
50 to 500 | ++ (Emax>100 and ≤150) | Cc1nc2cc(N3CCO[C@@H](c4cnn(C5CC5)c4)C3)nc([C@H]3C[C@H](C(F)(F)F)C3)c2nc1C [Example 81, 7-((2S)-2-(1-cyclopropyl-1H-pyrazol-4-yl)-4-morpholinyl)-2,3-dimethyl-5-(trans-3-(trifluoromethyl)cyclobutyl)pyrido[3,4-b]pyrazine]
50 to 500 | +++ (Emax>150 and ≤250) | Cc1cc([C@H]2CN(c3cc4nc(C)c(C)nc4c([C@H]4C[C@H](C(F)(F)F)C4)n3)CCO2)ccn1 [Example 82]
500 to 3000 | ++++ (Emax>250) | Cn1cc([C@H]2CN(c3nc(-c4ccc(Cl)cc4F)c4cccnc4n3)CCO2)cn1 [Example 83, 4-(4-chloro-2-fluorophenyl)-2-((2S)-2-(1-methyl-1H-pyrazol-4-yl)-4-morpholinyl)pyrido[2,3-d]pyrimidine]
≤ 50 | +++ (Emax>150 and ≤250) | Cc1ccc2c(-c3ccc(Cl)cc3F)nc(N3CCO[C@@H](c4cnn(C)c4)C3)nc2n1 [Example 84, 4-(4-chloro-2-fluorophenyl)-7-methyl-2-((2S)-2-(1-methyl-1H-pyrazol-4-yl)-4-morpholinyl)pyrido[2,3-d]pyrimidine]
≤ 50 | +++ (Emax>150 and ≤250) | Cc1ccc2c(-c3ccc(Cl)cc3F)nc(N3CCO[C@@H](c4cnn(C5CC5)c4)C3)nc2n1 [Example 85, 4-(4-chloro-2-fluorophenyl)-2-((2S)-2-(1-cyclopropyl-1H-pyrazol-4-yl)-4-morpholinyl)-7-methylpyrido[2,3-d]pyrimidine]
≤ 50 | ++++ (Emax>250) | Cc1cc([C@H]2CN(c3nc(-c4ccc(Cl)cc4F)c4ccc(C)nc4n3)CCO2)ccn1 [Example 88, 4-(4-chloro-2-fluorophenyl)-7-methyl-2-((2S)-2-(2-methyl-4-pyridinyl)-4-morpholinyl)pyrido[2,3-d]pyrimidine]
50 to 500 | +++ (Emax>150 and ≤250) | Cc1ccc2c(-c3ccc(F)cc3F)nc(N3CCO[C@@H](c4cnn(C)c4)C3)nc2n1 [Example 91, 4-(2,4-difluorophenyl)-7-methyl-2-((2S)-2-(1-methyl-1H-pyrazol-4-yl)-4-morpholinyl)pyrido[2,3-d]pyrimidine]
≤ 50 | +++ (Emax>150 and ≤250) | Cc1ccc2c(-c3ccc(F)cc3F)nc(N3CCO[C@@H](c4cnn(C5CC5)c4)C3)nc2n1 [Example 92, 2-((2S)-2-(1-cyclopropyl-1H-pyrazol-4-yl)-4-morpholinyl)-4-(2,4-difluorophenyl)-7-methylpyrido[2,3-d]pyrimidine]
≤ 50 | +++ (Emax>150 and ≤250) | Cc1cc([C@H]2CN(c3nc(-c4ccc(F)cc4F)c4ccc(C)nc4n3)CCO2)ccn1 [Example 93, 4-(2,4-difluorophenyl)-7-methyl-2-((2S)-2-(2-methyl-4-pyridinyl)-4-morpholinyl)pyrido[2,3-d]pyrimidine]
50 to 500 | +++ (Emax>150 and ≤250) | Cc1ccc(-c2nc(N3CCO[C@@H](c4cnn(C)c4)C3)nc3nc(C)ccc23)c(F)c1 [Example 94, 4-(2-fluoro-4-methylphenyl)-7-methyl-2-((2S)-2-(1-methyl-1H-pyrazol-4-yl)-4-morpholinyl)pyrido[2,3-d]pyrimidine]
≤ 50 | +++ (Emax>150 and ≤250) | Cc1ccc(-c2nc(N3CCO[C@@H](c4cnn(C5CC5)c4)C3)nc3nc(C)ccc23)c(F)c1 [Example 95, 2-((2S)-2-(1-cyclopropyl-1H-pyrazol-4-yl)-4-morpholinyl)-4-(2-fluoro-4-methylphenyl)-7-methylpyrido[2,3-d]pyrimidine]
≤ 50 | ++++ (Emax>250) | Cc1ccc(-c2nc(N3CCO[C@@H](c4ccnc(C)c4)C3)nc3nc(C)ccc23)c(F)c1 [Example 96, 4-(2-fluoro-4-methylphenyl)-7-methyl-2-((2S)-2-(2-methyl-4-pyridinyl)-4-morpholinyl)pyrido[2,3-d]pyrimidine]
500 to 3000 | + (Emax>45 and ≤100) | Cc1ccc2c(n1)nc(N1CCO[C@@H](c3cnn(C)c3)C1)nc2[C@H]1C[C@H](C(F)(F)F)C1 [Example 97, 7-methyl-2-((2S)-2-(1-methyl-1H-pyrazol-4-yl)-4-morpholinyl)-4-(trans-3-(trifluoromethyl)cyclobutyl)pyrido[2,3-d]pyrimidine]
50 to 500 | ++ (Emax>100 and ≤150) | Cc1ccc2c(n1)nc(N1CCO[C@@H](c3cnn(C4CC4)c3)C1)nc2[C@H]1C[C@H](C(F)(F)F)C1 [Example 98, 2-((2S)-2-(1-cyclopropyl-1H-pyrazol-4-yl)-4-morpholinyl)-7-methyl-4-(trans-3-(trifluoromethyl)cyclobutyl)pyrido[2,3-d]pyrimidine]
≤ 50 | + (Emax>45 and ≤100) | Cc1cc([C@H]2CN(c3nc4nc(C)ccc4c([C@H]4C[C@H](C(F)(F)F)C4)n3)CCO2)ccn1 [Example 99, 7-methyl-2-((2S)-2-(2-methyl-4-pyridinyl)-4-morpholinyl)-4-(trans-3-(trifluoromethyl)cyclobutyl)pyrido[2,3-d]pyrimidine]
50 to 500 | ++ (Emax>100 and ≤150) | Cc1ccc2c(C34CC(C(F)(F)F)(C3)C4)nc(N3CCO[C@@H](c4cnn(C)c4)C3)nc2n1 [Example 100, 7-methyl-2-((2S)-2-(1-methyl-1H-pyrazol-4-yl)-4-morpholinyl)-4-(3-(trifluoromethyl)bicyclo[1.1.1]pentan-1-yl)pyrido[2,3-d]pyrimidine]
3000 to 100000 | – | Cc1ccc2c(C34CC(C(F)(F)F)(C3)C4)nc(N3CCO[C@@H](c4cnn(C5CC5)c4)C3)nc2n1 [Example 101, 2-((2S)-2-(1-cyclopropyl-1H-pyrazol-4-yl)-4-morpholinyl)-7-methyl-4-(3-(trifluoromethyl)bicyclo[1.1.1]pentan-1-yl)pyrido[2,3-d]pyrimidine]
≤ 50 | + (Emax>45 and ≤100) | Cc1cc([C@H]2CN(c3nc(C45CC(C(F)(F)F)(C4)C5)c4ccc(C)nc4n3)CCO2)ccn1 [Example 102, 7-methyl-2-((2S)-2-(2-methyl-4-pyridinyl)-4-morpholinyl)-4-(3-(trifluoromethyl)bicyclo[1.1.1]pentan-1-yl)pyrido[2,3-d]pyrimidine]
≤ 50 | ++++ (Emax>250) | Cc1cc2c(-c3ccc(Cl)cc3F)nc(N3CCO[C@@H](c4cnn(C)c4)C3)nc2nc1C [Example 103, 4-(4-chloro-2-fluorophenyl)-6,7-dimethyl-2-((2S)-2-(1-methyl-1H-pyrazol-4-yl)-4-morpholinyl)pyrido[2,3-d]pyrimidine]
50 to 500 | + (Emax>45 and ≤100) | Cc1cc2c(OCC3CC(F)(F)C3)nc(N3CCO[C@@H](c4cnn(C)c4)C3)nc2nc1C [Example 108, 4-((3,3-difluorocyclobutyl)methoxy)-6,7-dimethyl-2-((2S)-2-(1-methyl-1H-pyrazol-4-yl)-4-morpholinyl)pyrido[2,3-d]pyrimidine]
3000 to 100000 | – | Cc1cc2c(OC[C@H]3C[C@@H](C(F)(F)F)C3)nc(N3CCO[C@@H](c4cnn(C)c4)C3)nc2nc1C [Example 109, 6,7-dimethyl-2-((2S)-2-(1-methyl-1H-pyrazol-4-yl)-4-morpholinyl)-4-((cis-3-(trifluoromethyl)cyclobutyl)methoxy)pyrido[2,3-d]pyrimidine]
500 to 3000 | + (Emax>45 and ≤100) | Cc1cc2c(OC[C@@H]3C[C@H]3C(F)(F)F)nc(N3CCO[C@@H](c4cnn(C)c4)C3)nc2nc1C [Example 110, 6,7-dimethyl-2-((2S)-2-(1-methyl-1H-pyrazol-4-yl)-4-morpholinyl)-4-(((1R,2R)-2-(trifluoromethyl)cyclopropyl)methoxy)pyrido[2,3-d]pyrimidine]
500 to 3000 | + (Emax>45 and ≤100) | Cc1cc2c(OC[C@H]3CC3(C)C)nc(N3CCO[C@@H](c4cnn(C)c4)C3)nc2nc1C [Example 111, 4-(((1S)-2,2-dimethylcyclopropyl)methoxy)-6,7-dimethyl-2-((2S)-2-(1-methyl-1H-pyrazol-4-yl)-4-morpholinyl)pyrido[2,3-d]pyrimidine]
≤ 50 | +++ (Emax>150 and ≤250) | Cc1cc2c(nc(N3CCO[C@@H](c4cnn(C)c4)C3)nc2[C@H]2C[C@H](C(F)(F)F)C2)nc1C [Example 112, 6,7-dimethyl-2-((2S)-2-(1-methyl-1H-pyrazol-4-yl)-4-morpholinyl)-4-(trans-3-(trifluoromethyl)cyclobutyl)pyrido[2,3-d]pyrimidine]
